In patent publication US11517581B2, “Zika virus protease inhibitors and methods of use thereof” (priority 2017, dated 2022):
≈ marks a conversion by molar mass, not a printed value.

Tests used:
[1] = system: ZIKV (Puerto Rico strain PRVABC59); assay: Viral load reduction assay (qRT-PCR) in Vero cells; format: cell-based, Zika virus
[2] = Cell viability (MTT) assay in Huh-7 cells; format: cell-based; conditions: human
Protocol: (§1) Briefly, Vero or Huh-7 cells (4×10^4 cells/well) were incubated with different concentrations of individual drug for 24 h, followed by the addition of 10 μl/well of 5 mg/ml MTT substrate. The monolayers were incubated as above for 4 h (away from light). Finally, 100 μl of 10% sodium dodecyl sulfate (SDS) with 0.01M HCl was added and further incubated at 37° C. with 5% CO2 overnight. […] Briefly, the drug compounds were diluted with serum-free MEM and added to confluent Vero cells in 96-well culture plates (4×10^4 cells/well) in triplicate for 2 h at 37° C. After incubation, the drug-containing media were removed, and ZIKV (multiplicity of infection, MOI=0.0002) was added together with fresh drug-compound media to each well. Following 1 h of adsorption at 37° C., the virus-compound mixture was removed and the cells were washed twice with MEM to remove unbound virus. Subsequently, media with antiviral compounds were added to the cells for further incubation for 6 days at 37° C. in a 5% CO2 humidified environment. CPE was examined by inverted light microscopy (Chan et al., 2016b). Thereafter, MTT substrate and SDS-HCl were added sequentially as mentioned above. The half maximal inhibitory concentration (IC50) and CC50 were calculated using Sigma plot (SPSS) in an Excel add-in ED50V10.

[3] = human; cited from earlier work
ZIKV [4] = assay: MTT-based CPE inhibition assay in Vero cells; format: cell-based; conditions: Zika virus, 144 h, MOI 0.0002, 6 days
Protocol: as §1

ZIKV [5] = assay: Plaque reduction assay in Vero cells; format: cell-based, Zika virus
Protocol: Plaque reduction assay was performed as we previously described with slight modifications (Chan et al., 2017a). Briefly, Vero cells were seeded at 2×10^5 cells/well in 24-well tissue culture plates on the day before carrying out the assay. After 24 h of incubation, 20-40 plaque-forming units (PFU) of ZIKV were added to the cell monolayer with or without the addition of drug compounds and the plates were further incubated for 1 h at 37° C. in 5% CO2 before removal of unbound viral particles by aspiration of the media and washing once with MEM. Monolayers were then overlaid with media containing 1% low melting agarose (Cambrex Corporation, New Jersey, USA) in MEM and appropriate concentrations of drug compounds, inverted and incubated as above for another 96 h. The wells were then fixed with 10% formaldehyde (BDH, Merck, Darmstadt, Germany) overnight. After removal of the agarose plugs, the monolayers were stained with 0.7% crystal violet (BDH, Merck) and the plaques were counted. The percentage of plaque inhibition relative to the control (i.e. without the addition of compound) wells were determined for each drug compound concentration.

[6] = system: ZIKV (Puerto Rico strain PRVABC59) in BALB/c mice; assay: In vivo treatment of dexamethasone-immunosuppressed mice with disseminated ZIKV infection; design: species or system mouse (BALB/c); Zika virus; conditions: 100 mg/kg q12 h sc
Protocol: Phosphate-buffered saline (PBS) was used to dilute the virus stocks to the desired concentration, and inocula were back-titrated to verify the dose given. On the day of virus inoculation, a dose of the virus equivalent to 6×10^6 TCID50 (3.24×10^6 plaque forming units) in 2000 of PBS was inoculated via the intraperitoneal route into mice under ketamine (100 mg/kg) and xylazine (10 mg/kg) anesthesia. Mice in the negative-control groups were injected with the same volume of PBS. Mice were monitored three times each day for clinical signs of disease and a numerical score was assigned at each observation as previously described (Chan et al., 2016c). Three mice per group were sacrificed at 5 dpi for virological, histological, and immunohistochemistry analyses. The remaining mice were sacrificed at 14 dpi or euthanized when there was ≥20% weight loss or ≥10% weight loss with ≥1 clinical sign. Samples of major organs were collected at necropsy for virological, histological, and immunohistochemical analyzes as we previously described (Chan et al., 2016c. Chan et al., 2017b). Blood samples were also collected for RNA extraction and qRT-PCR analysis.
For immunohistochemical analysis, each organ was entirely embedded in one paraffin block, and one full-face paraffin section at the maximum diameter of each organ was examined per block.

CO[C@@H]1[C@@H](OC(N)=O)[C@@H](O)[C@H](Oc2ccc3c(O)c(NC(=O)c4ccc(O)c(CC=C(C)C)c4)c(=O)oc3c2C)OC1(C)C [Novobiocin]
IC50 ([1]; Zika virus, Vero, 48 h, read-out: IC50, viral load reduction assay): 26.1 ± 0.33 mg/L (≈ 42.6 µM) | Concentration at which mean virus titer was significantly reduced (P<0.05) ([1]; viral load reduction assay): ≥ 25.00 µg/mL | CC50 at 24 h [2]: 1100 mg/L (≈ 1800 µM) | Clinical tolerability [3]: generally well tolerated clinically | IC50 (ZIKV [4]): 53.3 ± 2.48 mg/L (≈ 86.9 µM) | IC50 (ZIKV [5]; Zika virus, Vero cells): 15.21 ± 0.14 mg/L (≈ 24.8 µM) | Plaque reduction (ZIKV [5]; at concentrations ≥50.00 μg/ml): 100% | ZIKV NS1 antigen expression in organ tissues (brain, testis, kidney) ([6]; 5 dpi): minimal ZIKV NS1 antigen expression | Inflammatory infiltrate in brain, testis and kidney ([6]; ZIKV-inoculated and mock-infected mice with novobiocin): no or mild inflammatory infiltrate
